Measurements from patent US8569264B2, “Antibacterial 4,5-substituted aminoglycoside analogs having multiple substituents” (ISIS Pharmaceuticals, Inc., priority 2005, dated 2013).
Marks after values point to notes of the source that are not given here.

Tests used:
[1] = tested on: E. coli ATCC 25922; test: MIC, E. coli ATCC 25922; assay type: cell-based; conditions: Example 110
Protocol: (§1) The MIC assays are carried out in 150 μL volume in duplicate in 96-well clear flat-bottom plates. The bacterial suspension from an overnight culture growth in appropriate medium is added to a solution of test compound in 4% DMSO in water. Final bacterial inoculum is approximately 10^5-10^6 CFU/well. […] Both ampicillin and tetracycline are used as antibiotic-positive controls in each screening assay for S. pyogenes, E. coli imp-, E. coli, S. aureus, E. faecalis, K. pneumoniae and P. vulgaris. Ciprofloxacin is used as an antibiotic positive control in each screening assay for P. aeruginosa.
(§2) The following compounds were prepared using methods illustrated in the previous examples. The compounds were also examined in standard bacterial assays against E. Coli, S. Aureus, P. aurginosa, K. pneumoniae, P. vulgaris, and A. baumannii to determine activities. Each of the bacterial cultures that are available from ATCC (www.atcc.org) is identified by its ATCC number. A. baumannii is gentamicin sensitive Acinetobacter baumannii #2 from Walter Reed.

[2] = tested on: S. aureus ATCC 13709; test: MIC, S. aureus ATCC 13709; assay type: cell-based; conditions: Example 110
Protocol: as §1, §2

[3] = tested on: P. aurginosa ATCC 25416; test: MIC, P. aurginosa ATCC 25416; assay type: cell-based; conditions: Example 110
Protocol: as §1, §2

[4] = tested on: P. aurginosa ATCC 29248; test: MIC, P. aurginosa ATCC 29248; assay type: cell-based; conditions: Example 110
Protocol: as §1, §2

[5] = tested on: K. pneumoniae ATCC 10031; test: MIC, K. pneumoniae ATCC 10031; assay type: cell-based; conditions: Example 110
Protocol: as §1, §2

[6] = tested on: P. vulgaris ATCC 8427; test: MIC, P. vulgaris ATCC 8427; assay type: cell-based; conditions: Example 110
Protocol: as §1, §2

[7] = tested on: gentamicin sensitive Acinetobacter baumannii #2 from Walter Reed; test: MIC, A. baumannii WReed 2; assay type: cell-based; conditions: Example 110
Protocol: as §1, §2

[8] = molecular target: 18S ribosomal subunit RNA target; test: Mass spectrometry based binding assay (FTICR), 18S; conditions: FTICR mass spectrometry; Example 105
Protocol: (§3) In a typical experiment, 10 μL of an aqueous solution containing 100 mM ammonium acetate buffer, 2.5 or 5 μM of each RNA, and 33% isopropyl alcohol (to aid ion desolvation) was prepared with different concentrations of each ligand or ligand mixture Samples were introduced into the electrospray ionization source (negative ionization mode) at 1 μL/min and ions were stored for 1 sec in an RF-only hexapole following desolvation. The abundances were integrated from the respective ions for free RNA and the ligand-RNA complex. The primary (1:1 RNA:ligand) and secondary (1:2 complex, if observed). […] The peak ratios were measured at each concentration, then a plot of complex/free RNA versus concentration of ligand added was fitted to a second (or higher) order binding polynomial to determine the KD.

[9] = molecular target: 16S ribosomal subunit RNA target; test: Mass spectrometry based binding assay (FTICR), 16S; conditions: FTICR mass spectrometry; run at 100 nM RNA; Example 105
Protocol: as §3, with “[…],” for “2.5 or 5 μM of each RNA,”

[10] = tested on: E. coli S30 bacterial extract (pBestLuc firefly luciferase reporter); test: Coupled bacterial transcription/translation assay; assay type: biochemical; conditions: Example 105; read-out: Trans/Trans IC50
Protocol: The DNA template, pBestLuc™ (Promega), is a plasmid containing a reporter gene for firefly luciferase fused to a strong tac promoter and ribosome binding site. Messenger RNA from 1 μg pBestLuc is transcribed and translated in E. coli S30 bacterial extract in the presence or absence of test compound. Compounds are tested in a black 96 well microtiter plate with an assay volume of 35 μL. […] The transcription/translation reaction is incubated for 35 minutes at 37° C. followed by detection of functional luciferase with the addition of 30 μL LucLite™ (Packard). Light output is quantitated on a Packard TopCount.

[11] = tested on: E. Coli; test: MIC, E. Coli; assay type: cell-based; conditions: Example 105
Protocol: as §1

[12] = tested on: S. Aureus; test: MIC, S. Aureus; assay type: cell-based; conditions: Example 105
Protocol: as §1

[13] = tested on: Staphylococcus aureus (Smith Strain ATCC 13709); test: Staphylococcus aureus mouse protection assay; assay type: in vivo, mice; conditions: for # Dead mice/Total mice in group: Staph Conc. 10^6, 10% Mucin, the 14th table
Protocol: Two of the novel aminoglycoside compounds of the invention were examined for their anitbacterial activity against staphylococcus aureus. Mice were fed with autoclaved commercial food pellets and sterile water ad libitum. Animals were inoculated intraperitoneally with 0.5 mL/mouse of the indicated concentration of S. aureus (ATCC 13709) containing 10% mucin. There were 10 mice in each treatment group and compounds were administered subcutaneously one and 3 hour after infection. Compounds 15a (R4═R5═CH3) and 15j (R4═H, R5═(CH2)2C6H5)) were used at 75 mg/kg, 37.5 mg/kg, 18.8 mg/kg, 9.4 mg/kg, 4.7 mg/kg, 2.3 mg/kg, 1.17 mg/kg and 0.5 mg/kg. Amakacin, paromomycin and neomycin were used as the positive controls at concentrations of 2 mg/kg, 1 mg/kg and 0.5 mg/kg.
Test compound was administered as an aqueous buffer solution (phosphate buffered saline (PBS), pH=7.4).

| MIC E. coli ATCC 25922 [1] | MIC S. aureus ATCC 13709 [2] | MIC P. aurginosa ATCC 25416 [3] | MIC P. aurginosa ATCC 29248 [4] | MIC K. pneumoniae ATCC 10031 [5] | MIC P. vulgaris ATCC 8427 [6] | MIC A. baumannii WReed 2 [7] | Structure (SMILES) | other results |
| --- | --- | --- | --- | --- | --- | --- | --- | --- |
| >40 µM | 10 to 20 µM | 5 to 10 µM | >40 µM | 5 to 10 µM | 20 to 40 µM | 20 to 40 µM | NCC1OC(OC2C(CO)OC(OC3C(O)C(N)CC(N)C3OC3OC(CO)C(O)C(O)C3N)C2OCCNCCN2C(=O)c3cccc4cccc(c34)C2=O)C(N)C(O)C1O (stereo not shown) [Compound 9ae] | – |
| 5 to 10 µM | <0.6 µM | >40 µM | >40 µM | 1.3 to 2.5 µM | 5 to 10 µM | 2.5-5^ uM | COc1ccc(CCNCCOC2C(OC3C(O)C(N)CC(N)C3OC3OC(CO)C(O)C(O)C3N)OC(CO)C2OC2OC(CN)C(O)C(O)C2N)cc1 (stereo not shown) [Compound 9aj] | – |
| – | – | – | – | – | – | – | NCC1OC(OC2C(CO)OC(OC3C(O)C(N)CC(N)C3OC3OC(CO)C(O)C(O)C3N)C2OCCNCc2cccnc2)C(N)C(O)C1O (stereo not shown) [Compound 9b] | Kd [8]: 9400 nM; Kd [9]: 900 nM; IC50 [10]: 100 nM; MIC E. Coli. [11]: 6-12^b uM; MIC S. Aureus [12]: 0.6-1^ uM; # Dead mice/Total mice in group ([13]; 0.1 mg/kg in PBS pH=7.4): 7/10 (10% Mucin); # Dead mice/Total mice in group ([13]; 0.5 mg/kg in PBS pH=7.4): 3/10 (10% Mucin); # Dead mice/Total mice in group ([13]; 1 mg/kg in PBS pH=7.4): 0/10 (10% Mucin); # Dead mice/Total mice in group ([13]; 2 mg/kg in PBS pH=7.4): 0/10 (10% Mucin); # Dead mice/Total mice in group ([13]; 4.5 mg/kg in PBS pH=7.4): 0/10 (10% Mucin); # Dead mice/Total mice in group ([13]; 9 mg/kg in PBS pH=7.4): 0/10 (10% Mucin); # Dead mice/Total mice in group ([13]; 18 mg/kg in PBS pH=7.4): 0/10 (10% Mucin); # Dead mice/Total mice in group ([13]; 37 mg/kg in PBS pH=7.4): 0/10 (10% Mucin); # Dead mice/Total mice in group ([13]; 75 mg/kg in PBS pH=7.4): 0/10 (10% Mucin); # Dead mice/Total mice in group ([13]; […] in PBS pH=7.4): 6/10 (10% Mucin); prevention of lethal bacterial infections in mice ([13]; result in words, summary of the 14th table): effective at preventing lethal bacterial infections in mice |

| Structure (SMILES) | MIC E. coli ATCC 25922 [1] | MIC S. aureus ATCC 13709 [2] | MIC P. aurginosa ATCC 25416 [3] | MIC P. aurginosa ATCC 29248 [4] | MIC K. pneumoniae ATCC 10031 [5] | MIC P. vulgaris ATCC 8427 [6] | MIC A. baumannii WReed 2 [7] | other results |
| --- | --- | --- | --- | --- | --- | --- | --- | --- |
| NCC1OC(OC2C(CO)OC(OC3C(O)C(N)CC(N)C3OC3OC(CO)C(O)C(O)C3N)C2OCCN(CCCc2ccccc2)CCc2ccccc2)C(N)C(O)C1O (stereo not shown) [Compound 9ag] | 10 to 20 µM | 0.6 to 1.2 µM | 10 to 20 µM | >40 µM | 2.5 to 5 µM | 10 to 20 µM | 10 to 20 µM | – |
